In PubChem BioAssay AID330 (DTP/NCI, 2004):
Where “and” joins values, the source holds several entries; their conditions need not be identical. Equal entries are not always repeated. Toxic doses and inconclusive results are not listed. Peptide text beside a SMILES is read from it. * marks the point of attachment. Cbz = O=C(OCc1ccccc1)*

System: P388 leukemia ip, CD2F1 mice, survival T/C
Experiment: NCI In Vivo Anticancer Drug Screen. Data for tumor model P388 Leukemia (intraperitoneal) in CD2F1 (CDF1) mice
Conditions: endpoint: median survival time, higher = longer survival
In short: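 Mice carrying the transplanted tumor received test compound or vehicle. Survival was recorded in each group, and the value is the treated-group measurement divided by that of the vehicle-treated control group.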

[1] = dose: 6.25 mg/kg/injection, schedule: Q01DX009 (ip), vehicle: saline with Tween-80
[2] = dose: 12.5 mg/kg/injection, schedule: Q01DX009 (ip), vehicle: saline with Tween-80
[3] = dose: 25.0 mg/kg/injection, schedule: Q01DX009 (ip), vehicle: saline with Tween-80
[4] = dose: 50.0 mg/kg/injection, schedule: Q01DX009 (ip), vehicle: saline with Tween-80
[5] = dose: 60.0 mg/kg/injection, schedule: Q01DX005 (ip), vehicle: saline with Tween-80
[6] = dose: 120.0 mg/kg/injection, schedule: Q01DX005 (ip), vehicle: saline with Tween-80
[7] = dose: 240.0 mg/kg/injection, schedule: Q01DX005 (ip), vehicle: saline with Tween-80
[8] = dose: 50.0 mg/kg/injection, schedule: Q01DX005 (ip), vehicle: saline with Tween-80
[9] = dose: 100.0 mg/kg/injection, schedule: Q01DX005 (ip), vehicle: saline with Tween-80
[10] = dose: 200.0 mg/kg/injection, schedule: Q01DX005 (ip), vehicle: saline with Tween-80

For `CC(=O)c1c(O)cc(-c2ccccc2)oc1=O`, the T/C (dose: 9.5 mg/kg/injection, schedule: Q01DX005 (ip), vehicle: Klucel (hydroxypropylcellulose) (HPC)) was 91 % of control, the T/C (dose: 19.0 mg/kg/injection, schedule: Q01DX005 (ip), vehicle: Klucel (hydroxypropylcellulose) (HPC)) was 96 % of control and the T/C (dose: 38.0 mg/kg/injection, schedule: Q01DX005 (ip), vehicle: Klucel (hydroxypropylcellulose) (HPC)) was 93 % of control. For the same molecule, the T/C (dose: 76.0 mg/kg/injection, schedule: Q01DX005 (ip), vehicle: Klucel (hydroxypropylcellulose) (HPC)) was 106 % of control.

In the case of `c1ccc(P2(c3ccccc3)(c3ccccc3)OCC3CC32)cc1` (centres undefined), the T/C (dose: 3.13 mg/kg/injection, schedule: Q01DX009 (ip), vehicle: saline with Tween-80) is reported as 103 % of control, the T/C (dose: 3.13 mg/kg/injection, schedule: Q01DX009 (ip), vehicle: saline) is reported as 94 % of control and the T/C [1] is reported as 106 % of control. The T/C (dose: 6.25 mg/kg/injection, schedule: Q01DX009 (ip), vehicle: saline) was 98 % of control, the T/C [2] was 103 % of control and 124 % of control and the T/C (dose: 12.5 mg/kg/injection, schedule: Q01DX009 (ip), vehicle: saline) was 95 % of control. For the same molecule, the T/C [3] was 100 % of control and 111 % of control, the T/C (dose: 25.0 mg/kg/injection, schedule: Q01DX009 (ip), vehicle: saline) was 100 % of control and the T/C (dose: 50.0 mg/kg/injection, schedule: Q01DX009 (ip), vehicle: olive oil, sesame oil, peanut oil) was 95 % of control. For the same molecule, the T/C [4] was 102 % of control.

With `OCC1OC(Oc2ccc(Cl)cc2)C(O)C1O` (centres undefined) the T/C (dose: 50.0 mg/kg/injection, schedule: Q04DX002 (ip), vehicle: saline with Tween-80) was 105 % of control, the T/C (dose: 100.0 mg/kg/injection, schedule: Q04DX002 (ip), vehicle: saline with Tween-80) was 98 % of control and the T/C (dose: 200.0 mg/kg/injection, schedule: Q04DX002 (ip), vehicle: saline with Tween-80) was 112 % of control.

With `COC(=O)c1onc2ccc(Cl)cc12` the T/C (dose: 18.75 mg/kg/injection, schedule: Q01DX005 (ip), vehicle: Klucel (hydroxypropylcellulose) (HPC)) was 99 % of control, the T/C (dose: 37.5 mg/kg/injection, schedule: Q01DX005 (ip), vehicle: Klucel (hydroxypropylcellulose) (HPC)) was 92 % of control and the T/C (dose: 75.0 mg/kg/injection, schedule: Q01DX005 (ip), vehicle: Klucel (hydroxypropylcellulose) (HPC)) was 93 % of control. For the same molecule, the T/C (dose: 150.0 mg/kg/injection, schedule: Q01DX005 (ip), vehicle: Klucel (hydroxypropylcellulose) (HPC)) was 95 % of control.

For `COc1ccc(C2=NC(c3ccccc3)NC(c3ccccc3)/C2=C/c2ccccc2)cc1` (centres undefined), the T/C [1] was 100 % of control, the T/C [2] was 100 % of control and the T/C [3] was 105 % of control. For the same molecule, the T/C [4] was 100 % of control.

`COC(=O)c1nc2n[nH]c(N)c2c2c1CCCCCCCCCC2` was tested, and the T/C [5] was 99 % of control, the T/C [6] was 93 % of control and the T/C [7] was 94 % of control.

In the case of `CNC(=O)Oc1ccc(Sc2ccc(OC(=O)NC)c(Cl)c2)cc1Cl`, the T/C (dose: 50.0 mg/kg/injection, schedule: Q01DX005 (ip), vehicle: saline + Tween-80 + alcohol) is reported as 106 % of control, the T/C [8] is reported as 99 % of control and 118 % of control and the T/C (dose: 100.0 mg/kg/injection, schedule: Q01DX005 (ip), vehicle: saline + Tween-80 + alcohol) is reported as 119 % of control. The T/C [9] was 102 % of control and 118 % of control, the T/C (dose: 200.0 mg/kg/injection, schedule: Q01DX005 (ip), vehicle: saline + Tween-80 + alcohol) was 114 % of control and the T/C [10] was 117 % of control. For the same molecule, the T/C (dose: 400.0 mg/kg/injection, schedule: Q01DX005 (ip), vehicle: saline + Tween-80 + alcohol) was 124 % of control.

For `CCCC(=O)C(CC)C(=O)CCC(=O)Nc1cccc([N+](=O)[O-])c1` (centres undefined), the T/C [5] was 101 % of control, the T/C [6] was 104 % of control and the T/C [7] was 109 % of control.

In the case of `CCOC(=O)C(Cc1c[nH]c2ccccc12)NC(=O)C(Cc1ccccc1)NC(=O)C(Cc1cnc[nH]1)NC(=O)OCc1ccccc1` (stereo not drawn) (Cbz-His-Phe-Trp-OEt; configuration not given here), the T/C (dose: 50.0 mg/kg/injection, schedule: Q01DX005 (ip), vehicle: Klucel (hydroxypropylcellulose) (HPC)) is reported as 93 % of control, the T/C (dose: 100.0 mg/kg/injection, schedule: Q01DX005 (ip), vehicle: Klucel (hydroxypropylcellulose) (HPC)) is reported as 93 % of control and the T/C (dose: 200.0 mg/kg/injection, schedule: Q01DX005 (ip), vehicle: Klucel (hydroxypropylcellulose) (HPC)) is reported as 89 % of control.

For `CCOC(=O)/C(C#N)=C/Nc1ccc(Cl)nc1Cl`, the T/C [5] was 89 % of control and the T/C [6] was 86 % of control.

In the case of `CN(C)c1nc(N(C)C)nc(N(C)C=O)n1`, the T/C (dose: 100.0 mg/kg/injection, schedule: Q01DX001 (ip), vehicle: saline) is reported as 99 % of control, the T/C (dose: 200.0 mg/kg/injection, schedule: Q01DX001 (ip), vehicle: saline) is reported as 97 % of control and the T/C (dose: 400.0 mg/kg/injection, schedule: Q01DX001 (ip), vehicle: saline) is reported as 100 % of control.

In the case of `CCOC(=O)c1cnc2ccc(C3CCCCC3)cc2c1Nc1ccc2c(c1)OCO2`, the T/C [5] is reported as 99 % of control, the T/C [6] is reported as 91 % of control and the T/C [7] is reported as 91 % of control.

`CC1(c2ccc3c(c2)OCO3)OC(CCl)CS1` (centres undefined) was tested, and the T/C [4] was 101 % of control, the T/C (dose: 100.0 mg/kg/injection, schedule: Q01DX009 (ip), vehicle: saline with Tween-80) was 101 % of control and the T/C (dose: 200.0 mg/kg/injection, schedule: Q01DX009 (ip), vehicle: saline with Tween-80) was 101 % of control.

`O=NN(CCCl)C(=O)Nc1ccc(I)cc1` was tested, and the T/C (dose: 3.0 mg/kg/injection, schedule: Q01DX009 (ip), vehicle: saline with Tween-80) was 154 % of control, the T/C (dose: 4.5 mg/kg/injection, schedule: Q01DX009 (ip), vehicle: saline with Tween-80) was 163 % of control and the T/C (dose: 6.25 mg/kg/injection, schedule: Q04DX003 (ip), vehicle: saline with Tween-80) was 154 % of control. The T/C (dose: 11.0 mg/kg/injection, schedule: Q01DX009 (ip), vehicle: saline with Tween-80) was 150 % of control and 152 % of control, the T/C (dose: 12.5 mg/kg/injection, schedule: Q04DX003 (ip), vehicle: saline with Tween-80) was 163 % of control and the T/C (dose: 16.5 mg/kg/injection, schedule: Q01DX009 (ip), vehicle: saline with Tween-80) was 154 % of control and 157 % of control. For the same molecule, the T/C [3] was 152 % of control and 154 % of control and 163 % of control, the T/C (dose: 25.0 mg/kg/injection, schedule: Q04DX003 (ip), vehicle: saline sonified) was 150 % of control and the T/C (dose: 37.5 mg/kg/injection, schedule: Q01DX009 (ip), vehicle: saline with Tween-80) was 171 % of control and 177 % of control. For the same molecule, the T/C [4] was 200 % of control and the T/C (dose: 50.0 mg/kg/injection, schedule: Q04DX003 (ip), vehicle: saline sonified) was 183 % of control.

For `CN(c1ccccc1)N1C(=O)CC2(CCCC2)C1=O`, the T/C (dose: 100.0 mg/kg/injection, schedule: Q04DX002 (ip), vehicle: Klucel (hydroxypropylcellulose) (HPC)) was 103 % of control, the T/C (dose: 200.0 mg/kg/injection, schedule: Q04DX002 (ip), vehicle: Klucel (hydroxypropylcellulose) (HPC)) was 106 % of control and the T/C (dose: 400.0 mg/kg/injection, schedule: Q04DX002 (ip), vehicle: Klucel (hydroxypropylcellulose) (HPC)) was 94 % of control.

In the case of `CCN(CC)C1CS(=O)(=O)OC2=C1CCCc1ccccc12` (centres undefined), the T/C (dose: 25.0 mg/kg/injection, schedule: Q01DX009 (ip), vehicle: Klucel (hydroxypropylcellulose) (HPC)) is reported as 102 % of control, the T/C (dose: 50.0 mg/kg/injection, schedule: Q01DX009 (ip), vehicle: Klucel (hydroxypropylcellulose) (HPC)) is reported as 104 % of control and the T/C (dose: 100.0 mg/kg/injection, schedule: Q01DX009 (ip), vehicle: Klucel (hydroxypropylcellulose) (HPC)) is reported as 95 % of control.

`Cn1c(O)c(N=O)c(=O)[nH]c1=S` was tested, and the T/C (dose: 12.5 mg/kg/injection, schedule: Q04DX002 (ip), vehicle: saline) was 101 % of control and the T/C (dose: 25.0 mg/kg/injection, schedule: Q04DX002 (ip), vehicle: saline) was 103 % of control.

With `CC(=O)c1c(-c2ccc(Cl)cc2)c(-c2ccc(Cl)cc2)nn(CCN)c1=O` the T/C (dose: 12.5 mg/kg/injection, schedule: Q01DX005 (ip), vehicle: saline with Tween-80) was 100 % of control, the T/C (dose: 25.0 mg/kg/injection, schedule: Q01DX005 (ip), vehicle: saline with Tween-80) was 98 % of control and the T/C [8] was 98 % of control and 95 % of control.

With `COc1cc(N=Nc2c(Cl)cc([N+](=O)[O-])cc2Cl)c(OC)cc1N=Nc1ccc(N)nc1N` the T/C [8] was 99 % of control, the T/C [9] was 100 % of control and the T/C [10] was 101 % of control.

`CC1=CC(O)(c2nc3ccccc3s2)CC(C)(C)C1` (centres undefined) was tested, and the T/C (dose: 60.0 mg/kg/injection, schedule: Q01DX005 (ip), vehicle: Klucel (hydroxypropylcellulose) (HPC)) was 93 % of control, the T/C (dose: 120.0 mg/kg/injection, schedule: Q01DX005 (ip), vehicle: Klucel (hydroxypropylcellulose) (HPC)) was 94 % of control and the T/C (dose: 240.0 mg/kg/injection, schedule: Q01DX005 (ip), vehicle: Klucel (hydroxypropylcellulose) (HPC)) was 92 % of control.

With `C/C(=N\NC(=S)Nc1ccc(C(=O)O)cc1)c1nccc2ccccc12` the T/C [8] was 100 % of control, the T/C [9] was 90 % of control and the T/C [10] was 90 % of control.

In the case of `COC(=O)c1cc2c(cc1C(=O)OC)C(=O)c1ccccc1C2=O`, the T/C [5] is reported as 100 % of control, the T/C [6] is reported as 101 % of control and the T/C [7] is reported as 92 % of control.

In the case of `CC(C)[N+](=C1O[B-](c2ccccc2)(c2ccccc2)O[B-]1(c1ccccc1)[C+]1CCCCC1)C(C)C` (centres undefined), the T/C [8] is reported as 102 % of control, the T/C [9] is reported as 108 % of control and the T/C [10] is reported as 116 % of control.
